Results taken from patent US20190008918A1, “IMMUNOMODULATION THERAPIES FOR CANCER” (BIOXCEL CORPORATION, priority 2016, published 2019).

Assays:
[1] = system: MC38 mouse colon cancer cell line; experiment: Antitumor efficacy in MC38 mouse model of colon adenocarcinoma (tumor volume, % TGI); type: in vivo, mouse (C57BL/6); conditions: day 10, Mifamurtide 30 μg biw and/or PD-1 antagonist 5 mg/kg biw
Text: Six to seven-week-old female C57BL/6 mice (20±4 g weight) were used in the studies. Mice received food and water ad libitum. The study protocol, the procedures involving the care and use of animals were reviewed and approved by the Institutional Animal Care and Use Committee (IACUC) to ensure compliance with the regulations of the Association for Assessment and Accreditation of Laboratory Animal Care (AAALAC).
(§1) DMEM medium (Cat. No.: 11960-044). Glutamax™ (Cat. No.: 35050061), Trypsin-EDTA (0.25%) (Cat. No.: 25200-056), Penicillin-Streptomycin (Cat. No.: 15070-063), Hanks' Balanced Salt solution (Cat. No.: 14175-095) were procured form Gibco, while Fetal Bovine Serum (FBS) Cat. No.: 004-001-1A was purchased from Biological Industries. PD-1 antagonist (Cat. No.: BE0146) was supplied by BioXcell. Stock solutions of PD-1 antagonist at 1 mg/ml were kept at 4° C. prior to use. Dosing solutions of PD-1 antagonist were prepared freshly before every administration in sterile phosphate buffered saline (pH 7.0) and maintained at 4° C. The test article Mifamurtide was procured from Sigma (SML0195) and prepared freshly as a working solution at concentration of 300 μg/ml and 100 μg/ml in sterile phosphate buffered saline (pH 7.0), to be administered at a total dose of 30 μg (corresponds to 1.5 mg/kg in mice) and 10 μg (corresponds to 0.5 mg/kg in mice) respectively, into the animal as indicated in Table 1. Luminex assay kit: MCYTOMAG-70K-32 was commercially available from Millipore, was used to analyze the cytokines and chemokines in the serum samples.
MC38 mouse colon cancer cell line as provided by GenScript were maintained as monolayer culture in DMEM supplemented with 10% fetal bovine serum (FBS), 1% Glutamax™ and 1% Penicillin-Streptomycin at 37° C. in an atmosphere with 5% CO2. The cells were routinely sub-cultured every 2 days to maintain growth at exponential phase. The tumor cells growing in exponential growth phase were harvested by trypsinization, followed by centrifugation at 335×g relative centrifugal force (RCF) in a centrifuge. The supernatant was subsequently removed by aspiration. Cell pellet was re-suspended in approximately 10× volume of cell culture medium and counted. The cell suspension was centrifuged again and processed as above and finally re-suspended in HBSS at a density of 1×10^7 cells per ml. Cell viability was determined to be ≥95% by trypan blue staining. […]
Tumor size and body weights were measured twice weekly.
Tumor size was measured twice per week in 2 dimensions using a caliper (recorded up to one decimal point). Tumor volume, expressed in mm^3, was calculated using the following formula, in which “a” and “b” were the long and the short diameters of a tumor, respectively. […]

[2] = system: cytokines (IFN-γ, IL-6, IL-12p40, and TNF-α) and chemokines (MCP-1 and MIP-2); experiment: Luminex analysis of serum cytokines and chemokines in MC38 tumor bearing mice; type: in vivo, mouse (C57BL/6)
Procedure: as §1
The immuno-modulatory effect of Mifamurtide at dose of 30 μg (b.i.w.) in the presence and absence of PD-1 antagonist at dose 5 mg/kg (b.i.w.) was also analysed. Luminex analysis was done to check the levels of cytokines (IFN-γ, IL-6, IL-12p40, and TNF-α) and chemokines (MCP-1 and MIP-2). […] Although all Mifamurtide doses and combinations were tolerated with no early death and sustained effect on body weight (data not shown).

[3] = post (8 hours) vs pre, Mifamurtide 30 μg and/or PD-1 antagonist 5 mg/kg
[4] = post (Day 11) vs pre, Mifamurtide 30 μg and/or PD-1 antagonist 5 mg/kg
[5] = serum, 8 hours post dose, Mifamurtide 30 μg and/or PD-1 antagonist 5 mg/kg
[6] = serum, Day 11, Mifamurtide 30 μg and/or PD-1 antagonist 5 mg/kg
[7] = serum, before dosing, Mifamurtide 30 μg and/or PD-1 antagonist 5 mg/kg group

Mifamurtide
TGI % & SEM (with ref. to Mifamurtide) [1]: 0.00% | TGI % (±SEM) (with ref. to PD-1 Antagonist) [1]: −39.48% | TGI % (±SEM) (with ref. to vehicle) [1]: −8.36% | Tumor volume (mm^3) (±SEM) ([1]; mean, i.p.): 2791.64 mm^3 | IFN gamma, Fold change [2, 3]: 0.0 | IL-6, Fold change [2, 3]: 10.85 | MCP-1, Fold change [2, 3]: 1.5 | TNF-alpha, Fold change [2, 3]: 1.6 | IL-12p40, Fold change [2, 4]: 1.0 | MIP-2, Fold change [2, 4]: 0.7 | IFN gamma, Post (8 hours) [2, 5]: 0 picogram/ml | IL-6, Post (8 hours) [2, 5]: 14.43 picogram/ml | MCP-1, Post (8 hours) [2, 5]: 23.54 picogram/ml | TNF-alpha, Post (8 hours) [2, 5]: 3.33 picogram/ml | IL-12p40, Post (Day 11) [2, 6]: 1.55 picogram/ml | MIP-2, Post (Day 11) [2, 6]: 13.67 picogram/ml | IFN gamma, Pre [2, 7]: 0 picogram/ml | IL-6, Pre [2, 7]: 1.33 picogram/ml | IL-12p40, Pre [2, 7]: 1.55 picogram/ml | MCP-1, Pre [2, 7]: 15.9 picogram/ml | MIP-2, Pre [2, 7]: 20.84 picogram/ml | TNF-alpha, Pre [2, 7]: 2.13 picogram/ml
